Source: article PMC9533837 (Antiviral Research, 2003)
≈ marks a conversion by molar mass, not a printed value. Entries after “also recorded” stand apart in the source; their conditions may differ. Read-outs that look alike come from different tables or passages of the source.

How the values were obtained:
[1] = system: orthopoxviruses (VAR-BSH, VAR-YAM, VAR-GAR, MPX, CPX, VAC); assay: organism not typed; type: cell-based
VAC Copenhagen [2] = assay: microbe, parasite or virus in culture; type: cell-based, vaccinia virus; settings: for IC50: Orthopoxvirus vaccinia, Vero, read-out: IC50 VAC Vero
[3] = system: VAR-BSH (1975 Bangladesh isolate of VAR major); assay: organism not typed; type: cell-based, variola major; settings: for IC50: LLC-MK2, read-out: IC50 VAR-BSH LLC-MK2
CPX Brighton [4] = assay: organism not typed; type: cell-based, cowpox; settings: for IC50: LLC-MK2, read-out: IC50 CPX LLC-MK2
[5] = system: MPX Zaire (V79-1-005-Scab); assay: organism not typed; type: cell-based, monkeypox; settings: for IC50: Vero, read-out: IC50 MPX Vero
CPX Brighton [6] = assay: organism not typed; type: cell-based, cowpox; settings: for IC50: Vero, read-out: IC50 CPX Vero
[7] = system: VAR-YAM (1946 Japan Yamada isolate of VAR major); assay: organism not typed; type: cell-based, variola major; settings: for IC50: LLC-MK2, read-out: IC50 VAR-YAM LLC-MK2
[8] = system: VAR-GAR (1966 Brazil Garcia isolate of VAR minor); assay: organism not typed; type: cell-based, variola minor; settings: for IC50: Vero, read-out: IC50 VAR-GAR Vero
[9] = system: VAR-BSH (1975 Bangladesh isolate of VAR major); assay: organism not typed; type: cell-based, variola major; settings: for IC50: Vero, read-out: IC50 VAR-BSH Vero
[10] = system: MPX Zaire (V79-1-005-Scab); assay: organism not typed; type: cell-based, monkeypox; settings: for IC50: LLC-MK2, read-out: IC50 MPX LLC-MK2
[11] = system: VAR-GAR (1966 Brazil Garcia isolate of VAR minor); assay: organism not typed; type: cell-based, variola minor; settings: for IC50: LLC-MK2, read-out: IC50 VAR-GAR LLC-MK2
VAC Copenhagen [12] = assay: microbe, parasite or virus in culture; type: cell-based, vaccinia virus; settings: for IC50: Orthopoxvirus vaccinia, LLC-MK2, read-out: IC50 VAC LLC-MK2
[13] = system: VAR-YAM (1946 Japan Yamada isolate of VAR major); assay: organism not typed; type: cell-based, variola major; settings: for IC50: Vero, read-out: IC50 VAR-YAM Vero
VAC = settings: cited from earlier work

SMILES: Nc1nc2c(ncn2COCCO)c(=O)[nH]1 [acyclovir, Acyclovir]
- inhibitory activity against the orthopoxviruses tested (in words) [1]: No other test compounds of this group (acyclovir, brovavir, lobucavir, didanosine, ddC, or d4C) showed any activity; also recorded: failed to inhibit orthopoxvirus replication

SMILES: Nc1ncnc2c1ncn2C[C@@H](CO)OCP(=O)(O)O [HPMPA, (S)-9-(3-hydroxy-2-phosphonylmethoxypropyl)adenine]
- IC50 VAC Vero (VAC Copenhagen [2]): 8.1 µg/mL (≈ 26.7 µM)
- Therapeutic index (TI) VAC Vero (VAC Copenhagen [2]): 12.3
- IC50 VAR-BSH LLC-MK2 [3]: 6.1 µg/mL (≈ 20.1 µM)
- Therapeutic index (TI) VAR-BSH LLC-MK2 [3]: 16.4
- IC50 CPX LLC-MK2 (CPX Brighton [4]): 7.7 µg/mL (≈ 25.4 µM)
- Therapeutic index (TI) CPX LLC-MK2 (CPX Brighton [4]): 13.0
- IC50 MPX Vero [5]: 10.9 µg/mL (≈ 35.9 µM)
- Therapeutic index (TI) MPX Vero [5]: 9.2
- Cytotoxicity TC50 Vero (Vero cells): >100 µg/mL
- IC50 CPX Vero (CPX Brighton [6]): 8.4 µg/mL (≈ 27.7 µM)
- Therapeutic index (TI) CPX Vero (CPX Brighton [6]): 11.9
- IC50 VAR-YAM LLC-MK2 [7]: 6.8 µg/mL (≈ 22.4 µM)
- Therapeutic index (TI) VAR-YAM LLC-MK2 [7]: 14.7
- IC50 VAR-GAR Vero [8]: 6.6 µg/mL (≈ 21.8 µM)
- Therapeutic index (TI) VAR-GAR Vero [8]: 15.2
- IC50 VAR-BSH Vero [9]: 12.6 µg/mL (≈ 41.6 µM)
- Therapeutic index (TI) VAR-BSH Vero [9]: 7.9
- IC50 MPX LLC-MK2 [10]: 9.2 µg/mL (≈ 30.3 µM)
- Therapeutic index (TI) MPX LLC-MK2 [10]: 10.9
- IC50 VAR-GAR LLC-MK2 [11]: 4.6 µg/mL (≈ 15.2 µM)
- Therapeutic index (TI) VAR-GAR LLC-MK2 [11]: 21.7
- IC50 VAC LLC-MK2 (VAC Copenhagen [12]): 8.0 µg/mL (≈ 26.4 µM)
- Therapeutic index (TI) VAC LLC-MK2 (VAC Copenhagen [12]): 12.5
- IC50 VAR-YAM Vero [13]: 11.4 µg/mL (≈ 37.6 µM)
- Therapeutic index (TI) VAR-YAM Vero [13]: 8.8
- inhibition of VAC replication in vitro (VAC): inhibit VAC replication in vitro
- TI against the panel of viruses [1]: 11.9
- mean IC50 against the panel of viruses [1]: 8.4 ± 0.67 µg/mL
- Cytotoxicity TC50 LLC-MK2 (LLC-MK2 cells): >100 µg/mL

SMILES: CC(C)c1nc(CN(C)C(=O)N[C@H](C(=O)N[C@@H](Cc2ccccc2)C[C@H](O)[C@H](Cc2ccccc2)NC(=O)OCc2cncs2)C(C)C)cs1 [ritonavir, Ritonavir]
- inhibitory activity against the orthopoxviruses tested (in words) [1]: inactive

SMILES: NC(=O)c1csc([C@@H]2O[C@H](CO)[C@@H](O)[C@H]2O)n1 [Tiazofurin, 2-β-D-ribofuranosylthiazole-4-carboxamide]
- Therapeutic index (TI) VAC Vero (VAC Copenhagen [2]): 1.0
- IC50 (VAC Copenhagen [2]): > 100 µg/mL
- Therapeutic index (TI) VAR-BSH LLC-MK2 [3]: 18.2
- IC50 [3]: 5.5 µg/mL (≈ 21.1 µM)
- Therapeutic index (TI) CPX LLC-MK2 (CPX Brighton [4]): 9.1
- IC50 (CPX Brighton [4]): 11 µg/mL (≈ 42.3 µM)
- Therapeutic index (TI) MPX Vero [5]: 4.5
- IC50 [5]: 20 µg/mL (≈ 76.8 µM)
- Cytotoxicity TC50 Vero (Vero cells; African green monkey): 90.0 µg/mL
- Therapeutic index (TI) CPX Vero (CPX Brighton [6]): 2.6
- IC50 (CPX Brighton [6]): 34.6 µg/mL (≈ 133 µM)
- Therapeutic index (TI) VAR-YAM LLC-MK2 [7]: 25.6
- IC50 [7]: 3.9 µg/mL (≈ 15 µM)
- Therapeutic index (TI) VAR-GAR Vero [8]: 4.5
- IC50 [8]: 19.8 µg/mL (≈ 76.1 µM)
- Therapeutic index (TI) VAR-BSH Vero [9]: 4.0
- IC50 [9]: 22.6 µg/mL (≈ 86.8 µM)
- Therapeutic index (TI) MPX LLC-MK2 [10]: 19.2
- IC50 [10]: 5.2 µg/mL (≈ 20 µM)
- Therapeutic index (TI) VAR-GAR LLC-MK2 [11]: 16.4
- IC50 [11]: 6.1 µg/mL (≈ 23.4 µM)
- Therapeutic index (TI) VAC LLC-MK2 (VAC Copenhagen [12]): 3.0
- IC50 (VAC Copenhagen [12]): 33.3 µg/mL (≈ 128 µM)
- Therapeutic index (TI) VAR-YAM Vero [13]: 4.2
- IC50 [13]: 21.4 µg/mL (≈ 82.2 µM)
- IC50 ([1]; LLC-MK2, read-out: mean IC50 on LLC-MK2 cells): 10.8 ± 4.6 µg/mL (≈ 41.5 µM)
- IC50 ([1]; Vero, read-out: mean IC50 on Vero cells): 36.4 ± 12.9 µg/mL (≈ 140 µM)
- Cytotoxicity TC50 LLC-MK2 (LLC-MK2 cells; rhesus monkey): >100 µg/mL

SMILES: Nc1c2ncn([C@@H]3O[C@H](CO)[C@@H](O)[C@H]3O)c2nc[n+]1[O-] [ANO, Adenosine N1-oxide]
- inhibition of VAC virus replication in vitro (VAC): inhibits VAC virus replication in vitro
- inhibitory activity against the orthopoxviruses tested (in words) [1]: little activity

SMILES: Nc1ccn([C@H]2CC[C@@H](CO)O2)c(=O)n1 [ddC, zalcitabine]
- inhibitory activity against the orthopoxviruses tested (in words) [1]: No other test compounds of this group (acyclovir, brovavir, lobucavir, didanosine, ddC, or d4C) showed any activity

SMILES: Nc1ccn([C@H]2C=C[C@@H](CO)O2)c(=O)n1 [d4C, 2′,3′-dideoxydidehydrocytidine]
- inhibitory activity against the orthopoxviruses tested (in words) [1]: No other test compounds of this group (acyclovir, brovavir, lobucavir, didanosine, ddC, or d4C) showed any activity

SMILES: CN1C(=O)/C(=N\NC(N)=S)c2ccccc21 [Methisazone, methisazone]
- Therapeutic index (TI) VAC Vero (VAC Copenhagen [2]): 2.2
- IC50 (VAC Copenhagen [2]): 45.8 µg/mL (≈ 195 µM)
- Therapeutic index (TI) VAR-BSH LLC-MK2 [3]: 2.4
- IC50 [3]: 41.2 µg/mL (≈ 176 µM)
- Therapeutic index (TI) CPX LLC-MK2 (CPX Brighton [4]): 2.2
- IC50 (CPX Brighton [4]): 45.2 µg/mL (≈ 193 µM)
- Therapeutic index (TI) MPX Vero [5]: 1.5
- IC50 [5]: 66.2 µg/mL (≈ 283 µM)
- Cytotoxicity TC50 Vero (Vero cells; African green monkey): >100 µg/mL
- Therapeutic index (TI) CPX Vero (CPX Brighton [6]): 2.0
- IC50 (CPX Brighton [6]): 49.2 µg/mL (≈ 210 µM)
- Therapeutic index (TI) VAR-YAM LLC-MK2 [7]: 2.3
- IC50 [7]: 43.3 µg/mL (≈ 185 µM)
- Therapeutic index (TI) VAR-GAR Vero [8]: 4.6
- IC50 [8]: 21.6 µg/mL (≈ 92.2 µM)
- Therapeutic index (TI) VAR-BSH Vero [9]: 3.0
- IC50 [9]: 34.6 µg/mL (≈ 148 µM)
- Therapeutic index (TI) MPX LLC-MK2 [10]: 1.2
- IC50 [10]: 80.4 µg/mL (≈ 343 µM)
- Therapeutic index (TI) VAR-GAR LLC-MK2 [11]: 2.3
- IC50 [11]: 44.1 µg/mL (≈ 188 µM)
- Therapeutic index (TI) VAC LLC-MK2 (VAC Copenhagen [12]): 1.9
- IC50 (VAC Copenhagen [12]): 52 µg/mL (≈ 222 µM)
- Therapeutic index (TI) VAR-YAM Vero [13]: 2.6
- IC50 [13]: 39 µg/mL (≈ 166 µM)
- Cytotoxicity TC50 LLC-MK2 (LLC-MK2 cells; rhesus monkey): >100 µg/mL

SMILES: Nc1nc(=O)c2ncn([C@@H]3C[C@H](CO)[C@H]3CO)c2[nH]1 [lobucavir, [1R(1α,2β,3α)]-9-[2,3-bis(hydroxymethyl)cyclobutyl]guanine]
- inhibitory activity against the orthopoxviruses tested (in words) [1]: No other test compounds of this group (acyclovir, brovavir, lobucavir, didanosine, ddC, or d4C) showed any activity; also recorded: failed to inhibit orthopoxvirus replication

SMILES: NC(=O)NO [Hydroxyurea, hydroxyurea]
- inhibitory activity against the orthopoxviruses tested (in words) [1]: inactive
